From PubChem BioAssay AID330 (DTP/NCI, 2004)
Several values for one entry are separate records, joined by “and”; a condition that tells them apart may be missing. Equal values may be shown once. Toxic doses and inconclusive results are not listed. Rule for the calls: active = survival T/C of 150% or more; inactive = T/C below 125% in these data.

Tested on: P388 leukemia ip, CD2F1 mice, survival T/C
Experiment: NCI In Vivo Anticancer Drug Screen. Data for tumor model P388 Leukemia (intraperitoneal) in CD2F1 (CDF1) mice
Conditions: endpoint: median survival time, higher = longer survival
Outline: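 Mice carrying the transplanted tumor received test compound or vehicle. Survival was recorded in each group, and the value is the treated-group measurement divided by that of the vehicle-treated control group.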

[1] = dose: 100.0 mg/kg/injection, schedule: Q04DX003 (ip), vehicle: saline with Tween-80
[2] = dose: 200.0 mg/kg/injection, schedule: Q04DX003 (ip), vehicle: saline with Tween-80
[3] = dose: 400.0 mg/kg/injection, schedule: Q04DX003 (ip), vehicle: saline with Tween-80
[4] = dose: 60.0 mg/kg/injection, schedule: Q01DX005 (ip), vehicle: Klucel (hydroxypropylcellulose) (HPC)
[5] = dose: 120.0 mg/kg/injection, schedule: Q01DX005 (ip), vehicle: Klucel (hydroxypropylcellulose) (HPC)
[6] = dose: 240.0 mg/kg/injection, schedule: Q01DX005 (ip), vehicle: Klucel (hydroxypropylcellulose) (HPC)
[7] = dose: 100.0 mg/kg/injection, schedule: Q01DX009 (ip), vehicle: saline
[8] = dose: 200.0 mg/kg/injection, schedule: Q01DX009 (ip), vehicle: saline
[9] = dose: 12.5 mg/kg/injection, schedule: Q01DX009 (ip), vehicle: saline with Tween-80
[10] = dose: 25.0 mg/kg/injection, schedule: Q01DX009 (ip), vehicle: saline with Tween-80
[11] = dose: 50.0 mg/kg/injection, schedule: Q01DX009 (ip), vehicle: saline with Tween-80
[12] = dose: 50.0 mg/kg/injection, schedule: Q01DX009 (ip), vehicle: saline
[13] = dose: 100.0 mg/kg/injection, schedule: Q01DX009 (ip), vehicle: saline with Tween-80
[14] = dose: 200.0 mg/kg/injection, schedule: Q01DX009 (ip), vehicle: saline with Tween-80
[15] = dose: 60.0 mg/kg/injection, schedule: Q01DX005 (ip), vehicle: saline with Tween-80
[16] = dose: 120.0 mg/kg/injection, schedule: Q01DX005 (ip), vehicle: saline with Tween-80

Measured: T/C

O=C1OC2(CCCC2)OC(=O)C1=C/C=C/c1ccc([N+](=O)[O-])o1
inactive: dose: 50.0 mg/kg/injection, schedule: Q04DX003 (ip), vehicle: saline with Tween-80 99 % of control | [1] 100 % of control and 114 % of control and 96 % of control | [2] 102 % of control and 112 % of control and 96 % of control | [3] 103 % of control and 121 % of control and 86 % of control | dose: 800.0 mg/kg/injection, schedule: Q04DX003 (ip), vehicle: saline with Tween-80 115 % of control

O=C(CC1=NC2NN(c3ccccc3)C(=O)C2=C1CC(=O)c1cccc2ccccc12)c1cccc2ccccc12 (stereo unspecified)
inactive: dose: 50.0 mg/kg/injection, schedule: Q01DX005 (ip), vehicle: saline with Tween-80 107 % of control | dose: 100.0 mg/kg/injection, schedule: Q01DX005 (ip), vehicle: saline with Tween-80 107 % of control | dose: 200.0 mg/kg/injection, schedule: Q01DX005 (ip), vehicle: saline with Tween-80 107 % of control

Cc1cc(-n2c(C)nc3ccccc3c2=O)on1
inactive: [4] 101 % of control | [5] 93 % of control | [6] 104 % of control

Cc1ccc2sc3c(ccc(=O)n3C)c(=O)c2c1
inactive: dose: 100.0 mg/kg/injection, schedule: Q04DX002 (ip), vehicle: saline with Tween-80 115 % of control | dose: 200.0 mg/kg/injection, schedule: Q04DX002 (ip), vehicle: saline with Tween-80 120 % of control

c1ccc2c(SCCCCCCCCCSc3c4ccccc4nc4ccccc34)c3ccccc3nc2c1
inactive: [4] 107 % of control | [5] 104 % of control | [6] 90 % of control

CC(C)=CCC/C(C)=C/CC/C(C)=C/CC/C(C)=C/C=C/C=C(\C)CC/C=C(\C)CC/C=C(\C)CCC=C(C)C
inactive: dose: 17.5 mg/kg/injection, schedule: Q01DX005 (ip), vehicle: saline 101 % of control | dose: 35.0 mg/kg/injection, schedule: Q01DX005 (ip), vehicle: saline 100 % of control | dose: 70.0 mg/kg/injection, schedule: Q01DX005 (ip), vehicle: saline 95 % of control | dose: 140.0 mg/kg/injection, schedule: Q01DX005 (ip), vehicle: saline 104 % of control

COc1ccc(N(C)C(=O)/C=C/N2CCCCC2)cc1
inactive: dose: 12.5 mg/kg/injection, schedule: Q01DX005 (ip), vehicle: Klucel (hydroxypropylcellulose) (HPC) 107 % of control | dose: 25.0 mg/kg/injection, schedule: Q01DX005 (ip), vehicle: Klucel (hydroxypropylcellulose) (HPC) 98 % of control | dose: 50.0 mg/kg/injection, schedule: Q01DX005 (ip), vehicle: Klucel (hydroxypropylcellulose) (HPC) 114 % of control and 98 % of control | dose: 100.0 mg/kg/injection, schedule: Q01DX005 (ip), vehicle: Klucel (hydroxypropylcellulose) (HPC) 124 % of control and 96 % of control | dose: 200.0 mg/kg/injection, schedule: Q01DX005 (ip), vehicle: Klucel (hydroxypropylcellulose) (HPC) 109 % of control

CC(=O)Nc1ccc(/C=N/Nc2ccc([N+](=O)[O-])cn2)cc1
inactive: [7] 86 % of control | [8] 90 % of control | dose: 400.0 mg/kg/injection, schedule: Q01DX009 (ip), vehicle: saline 90 % of control

CC(=O)[C@@]1(O)CC[C@H]2[C@@H]3C=C(C)C4=CC(=O)CC[C@]4(C)[C@@]3(F)[C@@H](O)C[C@@]21C
inactive: [9] 100 % of control | [10] 90 % of control | [11] 109 % of control | [1] 91 % of control | [2] 95 % of control | [3] 100 % of control

CNC(=S)N/N=C/c1ccccc1
inactive: [10] 110 % of control | [11] 112 % of control | [12] 100 % of control | [13] 117 % of control | [7] 105 % of control | [14] 100 % of control | [8] 100 % of control

c1cc(OCC2CO2)ccc1OCC1CO1 (stereo unspecified)
inactive: [9] 95 % of control | [10] 96 % of control | [11] 113 % of control | [13] 108 % of control and 111 % of control | dose: 100.0 mg/kg/injection, schedule: Q04DX003 (ip), vehicle: saline sonified 100 % of control | [14] 108 % of control | dose: 200.0 mg/kg/injection, schedule: Q04DX003 (ip), vehicle: saline sonified 104 % of control | dose: 264.0 mg/kg/injection, schedule: Q04DX003 (ip), vehicle: saline with Tween-80 118 % of control | dose: 400.0 mg/kg/injection, schedule: Q01DX009 (ip), vehicle: saline with Tween-80 112 % of control | dose: 600.0 mg/kg/injection, schedule: Q04DX003 (ip), vehicle: saline with Tween-80 113 % of control

Nc1ccccc1N1CCNCC1
inactive: dose: 12.5 mg/kg/injection, schedule: Q04DX003 (ip), vehicle: saline 100 % of control | dose: 25.0 mg/kg/injection, schedule: Q04DX003 (ip), vehicle: saline 100 % of control | dose: 50.0 mg/kg/injection, schedule: Q04DX003 (ip), vehicle: saline 98 % of control and 101 % of control

O=C1Nc2ccccc2C1=Nc1cccc2cnccc12
inactive: [4] 100 % of control | [5] 95 % of control | [6] 98 % of control

CCC1(O)CC(OC2CC(NC)C(OC3CC(O)C(OC4CC(O)C(O)C(C)O4)C(C)O3)C(C)O2)c2c(cc3c(c2O)C(=O)c2c(O)ccc(O)c2C3=O)C1C(=O)OC (stereo unspecified)
inactive: dose: 3.13 mg/kg/injection, schedule: Q04DX003 (ip), vehicle: Klucel (hydroxypropylcellulose) (HPC) 115 % of control | dose: 6.25 mg/kg/injection, schedule: Q04DX003 (ip), vehicle: Klucel (hydroxypropylcellulose) (HPC) 118 % of control | dose: 12.5 mg/kg/injection, schedule: Q04DX003 (ip), vehicle: Klucel (hydroxypropylcellulose) (HPC) 115 % of control

C1CNC(SC2(SC3=NCCN3)SC3(NCCN3)S2)=N1
inactive: dose: 50.75 mg/kg/injection, schedule: Q01DX001 (ip), vehicle: saline 104 % of control | dose: 101.5 mg/kg/injection, schedule: Q01DX001 (ip), vehicle: saline 99 % of control | dose: 203.0 mg/kg/injection, schedule: Q01DX001 (ip), vehicle: saline 101 % of control

CC1(C)CCCC2C1=NOC2O (stereo unspecified)
inactive: [12] 100 % of control | [7] 96 % of control | [8] 100 % of control

CCCCCC1(CCCCCCCC(O)CC(=O)OCC)OCCO1 (stereo unspecified)
inactive: dose: 100.0 mg/kg/injection, schedule: Q01DX001 (ip), vehicle: Klucel (hydroxypropylcellulose) (HPC) 100 % of control | dose: 200.0 mg/kg/injection, schedule: Q01DX001 (ip), vehicle: Klucel (hydroxypropylcellulose) (HPC) 108 % of control | dose: 400.0 mg/kg/injection, schedule: Q01DX001 (ip), vehicle: Klucel (hydroxypropylcellulose) (HPC) 100 % of control

CSCCC(NCc1c(O)ccc2c(C)cc(=O)oc12)C(=O)O (stereo unspecified)
inactive: [4] 93 % of control | [5] 98 % of control | [6] 99 % of control

CN(C)C1C(O)C2Oc3c(cc(O)c4c3C(=O)c3cc5c(c(O)c3C4=O)C(N=[N+]=N)CC(C)(O)C5)C(C)(O2)C1O (stereo unspecified)
inactive: dose: 0.31 mg/kg/injection, schedule: Q01DX009 (ip), vehicle: other 107 % of control | dose: 0.62 mg/kg/injection, schedule: Q01DX009 (ip), vehicle: other 107 % of control | dose: 1.25 mg/kg/injection, schedule: Q01DX009 (ip), vehicle: other 108 % of control | dose: 10.0 mg/kg/injection, schedule: Q01DX009 (ip), vehicle: other 120 % of control

CCC1(C(=O)c2ccccc2)C(C(=O)OC)=NC(=N)N=C1C(=O)OC (stereo unspecified)
inactive: [15] 100 % of control | [16] 95 % of control

CC(=Nc1c(Cl)c(Cl)c2c(c1Cl)C(=O)c1cc(Cl)ccc1-2)NO
inactive: [15] 97 % of control | [16] 104 % of control | dose: 240.0 mg/kg/injection, schedule: Q01DX005 (ip), vehicle: saline with Tween-80 95 % of control
